Measurements as given in patent US20200022370A1, “MICROBIOCIDAL OXADIAZOLE DERIVATIVES” (SYNGENTA PARTICIPATIONS AG, priority 2016, published 2020).

How the values were obtained:
[1] = system: Phakopsora pachyrhizi; test: Phakopsora pachyrhizi / soybean / leaf disc preventative (Asian soybean rust); assay type: in vivo; details: foliar, 200 ppm in the applied formulation, soybean leaf disks, inoculated one day after application, vs untreated, 12 to 14 days after application, read-out: disease control
Experimental: (§1) Leaf disks or leaf segments of various plant species are cut from plants grown in a greenhouse. The cut leaf disks or segments are placed in multiwell plates (24-well format) onto water agar. The leaf disks are sprayed with a test solution before (preventative) or after (curative) inoculation. Compounds to be tested are prepared as DMSO solutions (max. 10 mg/ml) which are diluted to the appropriate concentration with 0.025% Tween20 just before spraying. The inoculated leaf disks or segments are incubated under defined conditions (temperature, relative humidity, light, etc.) according to the respective test system. A single evaluation of disease level is carried out 3 to 14 days after inoculation, depending on the pathosystem. Percent disease control relative to the untreated check leaf disks or segments is then calculated.
Example 3: Fungicidal Activity Against Phakopsora pachyrhizi/Soybean/Leaf Disc Preventative (Asian Soybean Rust)
Soybean leaf disks are placed on water agar in multiwell plates (24-well format) and sprayed with the Formulated test compound diluted in water. One day after application leaf discs are inoculated by spraying a spore suspension on the lower leaf surface. After an incubation period in a climate cabinet of 24-36 hours in darkness at 20° C. and 75% rh leaf disc are kept at 20° C. with 12 h light/day and 75% rh. The activity of a compound is assessed as percent disease control compared to untreated when an appropriate level of disease damage appears in untreated check leaf disks (12 to 14 days after application).
(§2) The following compounds at 200 ppm in the applied Formulation give at least 80% disease control in this test when compared to untreated control leaf disks under the same conditions, which show extensive disease development.

[2] = system: Puccinia recondita f. Sp. Tritici; test: Puccinia recondita f. sp. tritici / wheat / leaf disc preventative (brown rust); assay type: in vivo; details: foliar, 200 ppm in the applied formulation, wheat leaf segments cv. Kanzler, inoculated 1 day after application, vs untreated, 7 to 9 days after application, read-out: disease control
Procedure, shortened: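 Preventative leaf-segment test on wheat cv. Kanzler: formulated compound diluted in water was sprayed onto segments on agar, with spore inoculation 1 day later. Incubated at 19° C, 75% rh, 12 h light/12 h dark; percent disease control versus untreated scored 7 to 9 days after application.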

[3] = system: Puccinia recondita f. Sp. Tritici; test: Puccinia recondita f. sp. tritici / wheat / leaf disc curative (brown rust); assay type: in vivo; details: foliar, 200 ppm in the applied formulation, wheat leaf segments cv. Kanzler, compound applied 1 day after inoculation, vs untreated, 6 to 8 days after application, read-out: disease control
Experimental: as §1
Example 2: Fungicidal Activity Against Puccinia recondita f. sp. tritici/Wheat/Leaf Disc Curative (Brown Rust)
Wheat leaf segments cv. Kanzler are placed on agar in multiwell plates (24-well format). The leaf segments are then inoculated with a spore suspension of the fungus. Plates were stored in darkness at 19° C. and 75% relative humidity. The Formulated test compound diluted in water was applied 1 day after inoculation. The leaf segments were incubated at 19° C. and 75% relative humidity under a light regime of 12 hours light/12 hours darkness in a climate cabinet and the activity of a compound was assessed as percent disease control compared to untreated when an appropriate level of disease damage appears in untreated check leaf segments (6 to 8 days after application).
as §2

[4] = system: Glomerella lacenarium (Colletotrichum lacenarium); test: Glomerella lacenarium (Colletotrichum lacenarium) liquid culture / cucumber / preventative (anthracnose); assay type: cell-based; details: 20 ppm, liquid culture in PDB, 24° C., inhibition of growth measured photometrically 3 to 4 days after application, vs untreated, read-out: disease control
Procedure, shortened: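 Cryopreserved conidia in potato dextrose broth were added to test compound in a 96-well microtiter plate and incubated at 24 °C. Growth inhibition read photometrically 3–4 days after application, as percent activity versus untreated check.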

O=C(CSc1ccccc1)Nc1ccc(-c2noc(C(F)(F)F)n2)nc1 [Compound 1.55, 2-phenylsulfanyl-N-[6-[5-(trifluoromethyl)-1,2,4-oxadiazol-3-yl]-3-pyridyl]acetamide]
≥ 80%: pest or weed control at 200 ppm [1] | pest or weed control at 200 ppm [2] | pest or weed control at 200 ppm [3] | inhibition of growth at 20 ppm [4]

COC(=O)C(C)(C)CC(=O)Nc1ccc(-c2noc(C(F)(F)F)n2)cc1 [Compound 1.73, methyl 2,2-dimethyl-4-oxo-4-[4-[5-(trifluoromethyl)-1,2,4-oxadiazol-3-yl]anilino]butanoate]
≥ 80%: pest or weed control at 200 ppm [1] | pest or weed control at 200 ppm [2] | pest or weed control at 200 ppm [3] | inhibition of growth at 20 ppm [4]

CC(C)C(=O)Nc1ccc(-c2noc(C(F)(F)F)n2)cc1 [Compound 1.74, 2-methyl-N-[4-[5-(trifluoromethyl)-1,2,4-oxadiazol-3-yl]phenyl] propanamide]
≥ 80%: pest or weed control at 200 ppm [1] | pest or weed control at 200 ppm [2] | pest or weed control at 200 ppm [3] | inhibition of growth at 20 ppm [4]

CCC(C)C(=O)Nc1ccc(-c2noc(C(F)(F)F)n2)cc1 (centres unmarked) [Compound 1.99, 2-methyl-N-[4-[5-(trifluoromethyl)-1,2,4-oxadiazol-3-yl]phenyl]butanamide]
≥ 80%: pest or weed control at 200 ppm [1] | pest or weed control at 200 ppm [2] | pest or weed control at 200 ppm [3] | inhibition of growth at 20 ppm [4]

CC1(C(=O)Nc2ccc(-c3noc(C(F)(F)F)n3)cc2)COC1 [Compound 1.102, 3-methyl-N-[4-[5-(trifluoromethyl)-1,2,4-oxadiazol-3-yl]phenyl]oxetane-3-carboxamide]
≥ 80%: pest or weed control at 200 ppm [1] | pest or weed control at 200 ppm [2] | pest or weed control at 200 ppm [3] | inhibition of growth at 20 ppm [4]

O=C(Nc1ccc(-c2noc(C(F)(F)F)n2)cc1)C1CC1F (centres unmarked) [Compound 1.111, 2-fluoro-N-[4-[5-(trifluoromethyl)-1,2,4-oxadiazol-3-yl]phenyl]cyclo-propanecarboxamide]
≥ 80%: pest or weed control at 200 ppm [1] | pest or weed control at 200 ppm [2] | pest or weed control at 200 ppm [3] | inhibition of growth at 20 ppm [4]

COC(C)C(=O)Nc1ccc(-c2noc(C(F)(F)F)n2)cc1 (centres unmarked) [Compound 1.112, 2-methoxy-N-[4-[5-(trifluoromethyl)-1,2,4-oxadiazol-3-yl]phenyl] propanamide]
≥ 80%: pest or weed control at 200 ppm [1] | pest or weed control at 200 ppm [2] | pest or weed control at 200 ppm [3] | inhibition of growth at 20 ppm [4]

O=C(Nc1ccc(-c2noc(C(F)(F)F)n2)cc1)C1CCOC1 (centres unmarked) [Compound 1.116, N-[4-[5-(trifluoromethyl)-1,2,4-oxadiazol-3-yl]phenyl] tetrahydrofuran-3-carboxamide]
≥ 80%: pest or weed control at 200 ppm [2] | pest or weed control at 200 ppm [3] | inhibition of growth at 20 ppm [4]

O=C(Nc1ccc(-c2noc(C(F)(F)F)n2)cc1)C1(F)CC1 [Compound 1.123, 1-fluoro-N-[4-[5-(trifluoromethyl)-1,2,4-oxadiazol-3-yl]phenyl]cyclo-propanecarboxamide]
≥ 80%: pest or weed control at 200 ppm [1] | pest or weed control at 200 ppm [2] | pest or weed control at 200 ppm [3] | inhibition of growth at 20 ppm [4]

CON(C)C(=O)N(C)c1ccc(-c2noc(C(F)(F)F)n2)cc1 [Compound 1.126, 1-methoxy-1,3-dimethyl-3-[4-[5-(trifluoromethyl)-1,2,4-oxadiazol-3-yl]phenyl]urea]
≥ 80%: pest or weed control at 200 ppm [2] | pest or weed control at 200 ppm [3] | inhibition of growth at 20 ppm [4]

CN(C(=O)C1CC1)c1ccc(-c2noc(C(F)(F)F)n2)cc1 [Compound 1.128, N-methyl-N-[4-[5-(trifluoromethyl)-1,2,4-oxadiazol-3-yl]phenyl]cyclo-propanecarboxamide]
≥ 80%: pest or weed control at 200 ppm [1] | pest or weed control at 200 ppm [2] | pest or weed control at 200 ppm [3] | inhibition of growth at 20 ppm [4]

COCC(=O)N(C)c1ccc(-c2noc(C(F)(F)F)n2)cc1 [Compound 1.129, 2-methoxy-N-methyl-N-[4-[5-(trifluoromethyl)-1,2,4-oxadiazol-3-yl]phenyl]acetamide]
≥ 80%: pest or weed control at 200 ppm [2] | pest or weed control at 200 ppm [3] | inhibition of growth at 20 ppm [4]

CN(C(=O)C1CCOC1)c1ccc(-c2noc(C(F)(F)F)n2)cc1 (centres unmarked) [Compound 1.135, N-methyl-N-[4-[5-(trifluoromethyl)-1,2,4-oxadiazol-3-yl]phenyl] tetrahydrofuran-3-carboxamide]
≥ 80%: pest or weed control at 200 ppm [1] | pest or weed control at 200 ppm [3] | inhibition of growth at 20 ppm [4]

COCCC(=O)N(C)c1ccc(-c2noc(C(F)(F)F)n2)cc1 [Compound 1.136, 3-methoxy-N-methyl-N-[4-[5-(trifluoromethyl)-1,2,4-oxadiazol-3-yl]phenyl] propanamide]
≥ 80%: pest or weed control at 200 ppm [1] | pest or weed control at 200 ppm [3] | inhibition of growth at 20 ppm [4]

CN(C(=O)C1(C)COC1)c1ccc(-c2noc(C(F)(F)F)n2)cc1 [Compound 1.139, N,3-dimethyl-N-[4-[5-(trifluoromethyl)-1,2,4-oxadiazol-3-yl]phenyl]oxetane-3-carboxamide]
≥ 80%: pest or weed control at 200 ppm [1] | pest or weed control at 200 ppm [2] | pest or weed control at 200 ppm [3] | inhibition of growth at 20 ppm [4]

COCCCC(=O)N(C)c1ccc(-c2noc(C(F)(F)F)n2)cc1 [Compound 1.140, 4-methoxy-N-methyl-N-[4-[5-(trifluoromethyl)-1,2,4-oxadiazol-3-yl]phenyl]butanamide]
≥ 80%: pest or weed control at 200 ppm [1] | pest or weed control at 200 ppm [3] | inhibition of growth at 20 ppm [4]

CN(C(=O)C1CCCO1)c1ccc(-c2noc(C(F)(F)F)n2)cc1 (centres unmarked) [Compound 1.141, N-methyl-N-[4-[5-(trifluoromethyl)-1,2,4-oxadiazol-3-yl]phenyl] tetrahydrofuran-2-carboxamide]
≥ 80%: pest or weed control at 200 ppm [1] | pest or weed control at 200 ppm [2] | pest or weed control at 200 ppm [3] | inhibition of growth at 20 ppm [4]

O=C(Nc1ccc(-c2noc(C(F)(F)F)n2)cc1)C1CC1 [Compound 2.15, N-[4-[5-(trifluoromethyl)-1,2,4-oxadiazol-3-yl]phenyl] cyclopropane-carboxamide]
≥ 80%: pest or weed control at 200 ppm [2] | pest or weed control at 200 ppm [3] | inhibition of growth at 20 ppm [4]

CC(=O)N(C)c1ccc(-c2noc(C(F)(F)F)n2)cc1 [Compound 2.18, N-methyl-N-[4-[5-(trifluoromethyl)-1,2,4-oxadiazol-3-yl]phenyl] acetamide]
≥ 80%: pest or weed control at 200 ppm [2] | pest or weed control at 200 ppm [3] | inhibition of growth at 20 ppm [4]

CON(C(=O)C1CC1)c1ccc(-c2noc(C(F)(F)F)n2)cc1 [Compound 2.27, N-methoxy-N-[4-[5-(trifluoromethyl)-1,2,4-oxadiazol-3-yl]phenyl] cyclopropane-carboxamide]
≥ 80%: pest or weed control at 200 ppm [1] | pest or weed control at 200 ppm [3] | inhibition of growth at 20 ppm [4]
